Data published in US20210030843A1, “COMPOSITION AND METHOD FOR REDUCING CHEMOTHERAPY-INDUCED NEUTROPENIA VIA THE ADMINISTRATION OF PLINABULIN AND A G-CSF AGENT” (BEYONDSPRING PHARMACEUTICALS, INC., priority 2018, published 2021).
Where “and” joins values, the source holds several entries; their conditions need not be identical. Identical values can stand only once. Like-named read-outs stand apart in the source and are kept apart here.

Columns and labels:
[1] = test system: patients with solid tumors receiving docetaxel myelosuppressive chemotherapy; experiment: Example 1: randomized, double blind study, plinabulin versus pegfilgrastim with docetaxel; format: in vivo, human; conditions: for change of neutrophil count through time (FIG. 1): after docetaxel 75 mg/m^2, pegfilgrastim 6 mg, plinabulin 5, 10, 20 mg/m^2
Method: A randomized, double blind study to evaluate duration of severe neutropenia with plinabulin versus pegfilgrastim in patients with solid tumors receiving docetaxel myelosuppressive chemotherapy was performed. Patients were randomly assigned to the following arms (with the respective sample sizes): Arm 1: Docetaxel (75 mg/m^2)+Pegfilgrastim (6 mg) (n=14); Arm 2: Docetaxel (75 mg/m^2)+Plinabulin (20 mg/m^2) (n=14); Arm 3: Docetaxel (75 mg/m^2)+Plinabulin (10 mg/m^2) (n=14); and Arm 4: Docetaxel (75 mg/m^2)+Plinabulin (5 mg/m^2) (n=13).

[2] = test system: NSCLC patients (pts) with a measurable lesion; experiment: Phase 2 trial, addition of Plinabulin to Docetaxel in NSCLC patients; conditions: human, in vivo
[3] = test system: neutropenia caused by chemotherapies; experiment: Animal model studies of chemotherapy-caused neutropenia; format: in vivo; conditions: docetaxel, cisplatin, adriamycin, cyclosphosphamide, topotecan, gemcitabine
[4] = test system: patients; conditions: Plinabulin
[5] = test system: Patients with solid tumors; experiment: Plinabulin monotherapy in patients with solid tumors, laboratory parameters; format: in vivo, human; conditions: in the absence of chemotherapy
[6] = test system: patients (docetaxel-induced neutropenia); conditions: for proportion of patients with Grade 4 neutropenia: Cycle 1, docetaxel treatment alone vs addition of plinabulin to docetaxel, ANC <0.5×10^9/L, p<0.0003
[7] = test system: patients; conditions: most common adverse reactions; cited from earlier work
[8] = test system: Patients with first line breast cancer receiving TAC; experiment: Example 2: Phase 2 open label study, plinabulin and pegfilgrastim after TAC; format: in vivo, human; conditions: pegfilgrastim 6 mg
Method: A multicenter, randomized study, involving G-CSF and plinabulin was performed. The Phase 2 portion was randomized and open label. The decision to complete the Phase 2 portion of the study as open label was made to reduce the complexities of study conduct and to allow for the assessment, via QoL, of same-day plinabulin dosing (i.e on the day of chemotherapy dosing) versus next day dosing with G-CSF. Patients with first line breast cancer were enrolled in the study.
Patients received up to 4 cycles of a docetaxel/doxorubicin/cyclophosphamide based chemotherapy regimen, every 3 weeks (21 days). On Day 1 of Cycle 1, all patients receive docetaxel (75 mg/m^2), doxorubicin (50 mg/m^2), and cyclophosphamide (500 mg/m^2)-Taxotere, Adriamycin and cyclophosphamide (TAC).
During Cycles 2 to 4, the doxorubicin component may be omitted at the discretion of the investigator, i.e., TC can be administered instead of TAC.
The eligibility of all patients was determined during a 28-day screening period.
Phase 2 (Open Label): In Phase 2, patients were randomly assigned to one of the treatment arms, with the arm designation and planned intervention as shown in Table 2.
Patients have been randomized to receive TAC (or TC for Cycles 2 to 4)+pegfilgrastim or a combination of plinabulin and pegfilgrastim in each of Arms 1, 2, 3, and 4.
In Phase 2 (Open Label), Cycles 1 to 4 consisted of TAC (or TC for Cycles 2 to 4) administered IV on Day 1, every 21 days. Patients in Arms 2 and 3 received a single dose of plinabulin over 30 minutes (±5 minutes), 30 minutes after the end of the TAC (or TC for Cycles 2 to 4) infusion on Day 1. On Day 2 of each cycle (≥24 hours after completing chemotherapy) patients in […] received a single dose of pegfilgrastim (6.0 mg) (subcutaneous injection) in an open label treatment.
Docetaxel: Docetaxel was administered at a dose of 75 mg/m2. Administration was carried out with a 1-hour IV infusion per institutional protocol at the dose prescribed by this clinical study protocol (75 mg/m2). Dexamethasone (16 mg per day administered as 8 mg twice daily, or as per institution standard) was given on the day before, the day of (Day 1), and the day following docetaxel infusion (Day 2).
Doxorubicin: Doxorubicin was administered at a dose of 50 mg/m2. Doxorubicin is potentially cardiotoxic. Risk for doxorubicin cardiotoxicity increases with the cumulative lifetime dose of doxorubicin. At the doxorubicin dose and schedule in this study, patients received a cumulative doxorubicin dose of […] of body surface area, below the threshold for symptomatic cardiac dysfunction. Patients were monitored, per institutional standard, for doxorubicin cardiotoxicity.
Cyclophosphamide: Cyclophosphamide was administered at a dose of 500 mg/m^2.
TAC Regimen: All patients received 3 week cycles of TAC chemotherapy. In each cycle, doxorubicin (50 mg/m2) given as a 15-minute IV infusion was administered first, followed immediately by cyclophosphamide (500 mg/m2) given as a 30-minute IV infusion, and then by docetaxel (75 mg/m2) administered as 1-hour IV infusion (the infusion times stated are approximate).

[9] = test system: patients; conditions: G-CSF, cited from earlier work
[10] = Table 4, alone or with plinabulin 20 mg/m^2
[11] = cycle 1 after TAC, breast cancer, alone or with plinabulin 20 mg/m^2

In the case of `CC(C)(C)c1[nH]cnc1/C=c1\[nH]c(=O)/c(=C/c2ccccc2)[nH]c1=O` [Plinabulin, (3Z,6Z)-3-Benzylidene-6-{[5-(2-methyl-2-propanyl)-1H-imidazol-4-yl]methylene}-2,5-piperazinedione], the “change of neutrophil count through time (FIG. 1)” value [1] is reported as “started to rise again on day 10”, the “treating neutropenia induced by chemotherapeutic agent” value ([1]; docetaxel 75 mg/m^2) is reported as “effective” and the “overshot of the ANC during recovery” value ([1]; in vivo) is reported as “prevented”. The “Immune-Related AEs (IR-AEs)” value [2] was “without increasing”, the “prevention of neutropenia caused by chemotherapies” value [3] was “prevent neutropenia” and the “Bone Pain (% of patients)” value [4] was under 4%. The “Hospitalization (% of patients)” value [4] was 6%, the “changes in hematology or chemistry laboratory parameters” value [5] was “did not experience any clinically significant deleterious changes” and the “Grade 3 transient hypertension, patients” value ([6]; 20 mg/m^2 plinabulin) was 5%. For the same molecule, the “Grade 3 transient hypertension, patients” value ([6]; 30 mg/m^2 plinabulin) was 20%, the “proportion of patients with Grade 4 neutropenia” value [6] was 4.6% and the “clinical sequelae associated with docetaxel-induced neutropenia (sepsis, infections, hospitalizations, docetaxel dose reductions, G-CSF use)” value ([6]; human, in vivo) was “reduced”. For the same molecule, the “bone pain, patients” value ([6]; patients receiving plinabulin) was 4%.

For `CC(=O)O[C@@]12CO[C@@H]1C[C@H](O)[C@@]1(C)C(=O)[C@H](O)C3=C(C)[C@@H](OC(=O)[C@H](O)[C@@H](NC(=O)OC(C)(C)C)c4ccccc4)C[C@@](O)([C@@H](OC(=O)c4ccccc4)[C@H]21)C3(C)C` [docetaxel, reference compound], the “proportion of patients with Grade 4 neutropenia” value [6] was 33.3%.

B1: pegfilgrastim: colony-stimulating factor that acts on hematopoietic cells by binding to specific cell surface receptors (protein, chains of the INN, looked up)
chain: TPLGPASSLPQSFLLKCLEQVRKIQGDGAALQEKLCATYKLCHPEELVLLGHSLGIPWAPLSSCPSQALQLAGCLSQLHSGLFLYQGLLQALEGISPELGPTLDTLQLDVADFATTIWQQMEELGMAPALQPTQGAMPAFASAFQRRAGGVLVASHLQSFLEVSYRVLRHLAQP
modifications: PEG
For B1, the “bone pain, patients” value [7] is given as 31%, the “pain in an extremity, patients” value [7] is given as 9% and the Anti-cancer [8, 10] is given as “No”. For the same molecule, the “DSN (grade 3/4)” value [8, 10] was “Well over 1 day”, the “% neutropenia (grade 4)” value [8, 11] was 57% and > 50% and the “DSN (grade 3/4)” value [8, 11] was 1.4 ± 1.0. For the same molecule, the “patients with NLR greater than 5 (FIG. 6)” value [8, 11] was 76%, the “ANC nadir of median ANC (FIG. 2)” value ([8]; first 10 days of cycle 1, alone or with plinabulin 20 mg/m2) was “within the grade 3/4 neutropenia range” and the “Median ANC Nadir” value ([8]; alone or with plinabulin 20 mg/m^2) was 0.47 10^9 cells/L. The “change of neutrophil count through time (FIG. 1)” value [1] was “began to drop after 10 days”.

B2: G-CSF: Granulocyte-colony stimulating factor: compounds or factors that stimulate proliferation, differentiation, commitment and end cell functional activation of granulocytes (protein, UniProt P09919 31-207, looked up)
Granulocyte …: TPLGPASSLPQSFLLKCLEQVRKIQGDGAALQEKLVSECATYKLCHPEELVLLGHSLGIPWAPLSSCPSQALQLAGCLSQLHSGLFLYQGLLQALEGISPELGPTLDTLQLDVADFATTIWQQMEELGMAPALQPTQGAMPAFASAFQRRAGGVLVASHLQSFLEVSYRVLRHLAQP
In the case of B2, the “Hospitalization (% of patients)” value [9] is listed as 20% and the “Bone Pain (% of patients)” value ([9]; footnote mark 1) is listed as over 20%^1.
